Measured values published in the NIST ThermoML archive (doi:10.1016/j.jct.2016.01.019).

Assay: refractive index (other wavelength) (dimensionless); xn = mol fraction of the nth substance listed
Conditions: 94.64 kPa, Liquid, Standard Abbe refractometry

OCCCO [propan-1,3-diol] + CC(O)CO
refractive index
Conditions | x2 = 0 | x2 = 0.0985 | x2 = 0.2023 | x2 = 0.3015 | x2 = 0.3961 | x2 = 0.5009 | x2 = 0.5961 | x2 = 0.6965 | x2 = 0.7974 | x2 = 0.8985
313.15 K, Wavelength=587.6 nm | 1.43392 | 1.43331 | 1.43262 | 1.43194 | 1.43132 | 1.43077 | 1.43006 | 1.42912 | 1.42824 | 1.42705
313.15 K, Wavelength=632.8 nm | 1.43238 | 1.43157 | 1.43095 | 1.43031 | 1.42988 | 1.42924 | 1.42852 | 1.42758 | 1.42673 | 1.42553
313.15 K, Wavelength=644 nm | 1.43203 | 1.43122 | 1.43065 | 1.42997 | 1.42954 | 1.429 | 1.42818 | 1.42724 | 1.42638 | 1.42518
313.15 K, Wavelength=706.5 nm | 1.43035 | 1.42953 | 1.42898 | 1.4284 | 1.42788 | 1.42723 | 1.42653 | 1.42558 | 1.4247 | 1.42352
318.15 K, Wavelength=404.7 nm | 1.44474 | 1.44416 | 1.44346 | 1.44271 | 1.4421 | 1.44134 | 1.44059 | 1.43957 | 1.43859 | 1.43751
318.15 K, Wavelength=435.8 nm | 1.44141 | 1.44072 | 1.44015 | 1.43938 | 1.43872 | 1.438 | 1.43725 | 1.43624 | 1.43526 | 1.43417
318.15 K, Wavelength=486.1 nm | 1.43754 | 1.43671 | 1.43608 | 1.43535 | 1.43468 | 1.43396 | 1.43322 | 1.43243 | 1.43145 | 1.43035
318.15 K, Wavelength=546.1 nm | 1.43429 | 1.43372 | 1.43312 | 1.43243 | 1.43177 | 1.43107 | 1.43022 | 1.42925 | 1.42827 | 1.42718
318.15 K, Wavelength=587.6 nm | 1.43261 | 1.43191 | 1.43127 | 1.43053 | 1.42988 | 1.42918 | 1.42854 | 1.42758 | 1.42659 | 1.42551
318.15 K, Wavelength=632.8 nm | 1.43109 | 1.43037 | 1.42963 | 1.42894 | 1.42826 | 1.42752 | 1.42682 | 1.42606 | 1.42507 | 1.424
318.15 K, Wavelength=644 nm | 1.43075 | 1.43013 | 1.4294 | 1.42884 | 1.42811 | 1.42748 | 1.42668 | 1.42572 | 1.42473 | 1.42365
318.15 K, Wavelength=706.5 nm | 1.42908 | 1.42827 | 1.4276 | 1.42698 | 1.42645 | 1.42575 | 1.425 | 1.42406 | 1.42308 | 1.42199
